The nature of this series: molar enthalpy of vaporization or sublimation. Particulars: 298.15 K; Crystal; Static calorimetry.

± gives the expanded uncertainty stated by the source.

Regarding `O=C1Cc2ccccc2O1` [2-coumaranone], the molar enthalpy is 18.8 ± 0.406 kcal/mol. In the case of `O=C1COc2ccccc21` [3-coumaranone], the molar enthalpy came to 20.5 ± 0.406 kcal/mol.

The values are drawn from the NIST ThermoML archive (doi:10.1016/j.jct.2013.08.012).
